{"source": "patent US12083185B2", "about": "“Small polymeric carriers for delivery of agents” (University of Pittsburgh—Of the Commonwealth System of …, priority 2018, dated 2024)", "key": {"[1]": {"test_system": "PANC02 cells", "assay": "MTT cytotoxicity assay in PANC02 cells", "type": "cell-based, murine", "conditions": "96 h", "protocol": "MTT assay. The combinational effect of PTX and GEM as well as the cytotoxicity of blank and drug-loaded micelles were investigated by MTT assay using murine pancreatic carcinoma cell lines PANC02 and H7 cells. Cells were seeded into a 96-well plate at a density of 5000 cells/well and incubated in 100 μL of Dulbecco's Modified Eagle medium (DMEM) containing 10% FBS for 24 h. Cells were treated with various concentrations of free PTX, GEM or micelles solution for 96 h. Then, 20 μL of MTT solution (5 mg/mL) were added to each well and the cells were incubated for another 4 h. After removing the medium, 100 μL of DMSO were added into each well to dissolve MTT formazan crystals. The optical density was measured using a microplate reader and the cell viability was calculated with untreated cells as a control."}, "[2]": {"test_system": "CDA", "assay": "CDA expression in PANC02 cells by western blot", "type": "cell-based, murine", "conditions": "vs control group", "description": "As described above, CDA is overexpressed in pancreatic cancer, which mediates the metabolism of cytidine analogue drugs, such as gemcitabine of GEM, leading to the resistance to treatment with these drugs. Thus, reducing the CDA expression provides a new therapeutic window for pancreatic cancer. We examined the CDA expression in PANC02 cells treated with various formulations by western blot."}}, "data": [{"smiles": "Nc1ccn([C@@H]2O[C@H](CO)[C@@H](O)C2(F)F)c(=O)n1", "note": "[free GEM, gemcitabine]", "values": [{"measurement": "Cytotoxicity (cell killing effect, in words)", "setting": "[1]", "value": "concentration-dependent cell killing effect"}, {"measurement": "CDA expression", "setting": "[2]", "value": "not altered"}]}]}
